According to patent USRE37781E1, “Substituted cyclic carbonyls and derivatives thereof useful as retroviral protease inhibitors” (DuPont Pharmaceuticals Company, priority 1991, dated 2002):
Where two headings read alike, the source gives them in different places.

Biological target: single-chain tethered dimer of HIV protease (Human immunodeficiency virus 1, UniProt P04585)
Assay: biochemical
Type: biochemical
Set-up: fused on or other part: A second copy of the same protease unit is joined to the first by a short peptide tether, giving one polypeptide
Procedure: HIV Protease Inhibition Assay—HPLC Method
Active protease was prepared as described therein by extraction with 67% acetic acid, dilution 33-fold with water, dialysis against water and then against a “refolding buffer” consisting of 20 mM MES, 1 mM dithiothreitol and 10% glycerol. Protease was stored as a stock preparation at 10 uM in refolding buffer.
Substrate: Peptide of sequence: aminobenzoyl-Ala-Thr-His-Gln-Val-Tyr-Phe(NO2)-Val-Arg-Lys-Ala containing p-nitrophenylalanine, was prepared by solid phase synthesis as previously described Cheng et al., op.cit. Stock solutions of 2 mM substrate were prepared in DMSO.
Inhibitory compounds were dissolved in sufficient DMSO to make 3 mM stock solutions. All further dilutions were prepared in “assay buffer”: 1M NaCl, 50 mM MES, pH 5.5, 1 mM EDTA, 1 mM DTT, […] glycerol.
Enzyme reaction: In a 2 ml screw-cap centrifuge tube were added 50 ul protease (final concentration 0.25 nM) and 0.1 ml inhibitory compound (final concentration […]). After 15 min preincubation at room temperature, the reaction was started with the addition of 0.05 ml substrate (final concentration 5 uM). Incubation was carried out at 30 C. for 1 hr. The reaction was stopped with 1 ml 0.1M ammonium hydroxide.
HPLC measurement of product formation: The product (aminobenzoyl-Ala-Thr-His-Gln-Val-Tyr) was separated from substrate on a Pharmacia MonoQ anion exchange column. The injection volume was 0.2 ml. The mobile phases were: A (20 mM trisHCl, pH 9.0, 0.02% sodium Azide, 10% acetonitrile), B (20 mM tris HCl, pH 9.0, 0.02% sodium azide, 0.5M ammonium formate, 10% acetonitrile). The mobile phases were pumped at 1 ml/min, with a gradient from 0 to 30% B in 5 min, 100% B for 4 min to wash the column, and a re-equilibration for 4 min. The retention time of the product was 3.6 min. Detection with a Shimadzu model RF535 fluorescence monitor was at 330 nm (excitation) and 430 (emission).

[1] = read-out: HPLC Ki, Table 1d, lower part
[2] = Table 2d, HIV protease inhibition, HPLC method, read-out: HPLC K1

COc1cccc(CN2C(=O)N(Cc3cccc(OC)c3)C(Cc3ccccc3OC)C(O)C(O)C2Cc2ccccc2OC)c1 (stereo not drawn) [Example 16R]
Ki (Table 2e, read-out: K4 HPLC): 0.01 to 1 µM

CSCCC1C(O)C(O)C(CCSC)N(Cc2ccc(CO)cc2)C(=O)N1Cc1ccc(CO)cc1 (stereo not drawn) [16AF]
Ki (Table 2e, read-out: K4 HPLC): > 1 µM

O=C1N(Cc2ccc(CCl)cc2)[C@H](CCc2ccccc2)[C@@H](O)[C@@H](Cc2ccccc2)N1Cc1ccc(CCl)cc1 [Example 8J]
Ki (read-out: Ki (HPLC), Table 1e, cells marked (HPLC)): 0.01 to 1 µM

CC(C)CC1C(O)C(O)C(CC(C)C)N(Cc2ccccc2)C(=O)N1Cc1ccccc1 (stereo not drawn) [Example 16Z]
Ki (Table 2e, read-out: K4 HPLC): 0.01 to 1 µM

O=C1N(CC2CC2)C(Cc2ccccc2)C(O)C(OCc2ccccc2)C(Cc2ccccc2)N1CC1CC1 (stereo not drawn) [Example 7AH]
Ki [1]: > 1 µM

CN1CCN(CCCN2C(=O)NC(Cc3ccccc3)C(O)C(O)C2Cc2ccccc2)CC1 (stereo not drawn) [15AP]
Ki [2]: > 1 µM

CSCCC1C(O)C(O)C(CCSC)N(CC2CC2)C(=O)N1CC1CC1 (stereo not drawn) [Example 16AB]
Ki (Table 2e, read-out: K4 HPLC): > 1 µM

O=C1N(Cc2cccc(-c3cc[nH]n3)c2)C(Cc2ccccc2)C(O)C(O)C(Cc2ccccc2)N1Cc1cccc(-c2cc[nH]n2)c1 (stereo not drawn) [Example 15XO]
Ki [2]: < 0.01 µM

COCCOCO[C@@H]1C(=O)[C@@H](Cc2ccccc2)N(CC2CC2)C(=O)N(CC2CC2)[C@@H]1Cc1ccccc1 [Example 7AA]
Ki [1]: > 1 µM

O=C1N(CC2CC2)C(Cc2ccccc2)c2ncoc2C(Cc2ccccc2)N1CC1CC1 (stereo not drawn) [Example 7AD]
Ki [1]: 0.01 to 1 µM

C=CCN1C(=O)N(CC=C)C(C(C)C)C(O)C(O)C1C(C)C (stereo not drawn) [Example 16C]
Ki (read-out: K4 HPLC, Table 2e): 0.01 to 1 µM

O=C1N(CC2CC2)C(Cc2ccccc2)C(=NO)C(O)C(Cc2ccccc2)N1CC1CC1 (stereo not drawn) [Example 7AB]
Ki [1]: > 1 µM

C=CCCC1C(O)C(O)C(CCC=C)N(Cc2ccccc2)C(=O)N1Cc1ccccc1 (stereo not drawn) [Example 16AK]
Ki (Table 2e, read-out: K4 HPLC): > 1 µM

CC(C)CC1C(O)C(O)C(CC(C)C)N(CC2CC2)C(=O)N1CC1CC1 (stereo not drawn) [Example 16J]
Ki (Table 2e, read-out: K4 HPLC): < 0.01 µM

C=CCN1C(=O)N(CC=C)C(CCCCCC)C(O)C(O)C1CCCCCC (stereo not drawn) [Example 16AQ]
Ki (Table 2e, read-out: K4 HPLC): > 1 µM

CCCCCC#CCN1C(=O)N(CC#CCCCCC)C(Cc2ccccc2)C(O)C(O)C1Cc1ccccc1 (stereo not drawn) [Example 14E]
Ki (read-out: HPLC K1, Table 2d, class symbols): 0.01 to 1 µM

NC(Cc1ccccc1)C(=O)Nc1cccc(CN2C(=O)N(Cc3cccc(NC(=O)C(N)Cc4ccccc4)c3)C(Cc3ccccc3)C(O)C(O)C2Cc2ccccc2)c1 (stereo not drawn) [15V]
Ki (Table 2d, class symbols, read-out: HPLC K1): < 0.01 µM

CC(=O)c1ccc(CN2C(=O)N(Cc3ccc(C(C)=O)cc3)C(Cc3ccccc3)C(O)C(O)C2Cc2ccccc2)cc1 (stereo not drawn) [20J]
Ki (Table 2i, read-out: HPLC Ki): 0.01 to 1 µM
